Results reported in patent US20130260365A1, “HIGHLY EFFICIENT PROCESS FOR PRODUCING BIOETHANOL” (HONDA MOTOR CO., LTD., priority 2012, published 2013).

Tests used:
[1] = tested on: fermentative microorganism cell (yeast); experiment: microbe, parasite or virus in culture; conditions: Saccharomyces cerevisiae, 24 h, read-out: Growth inhibition (%)
Procedure: Sugar solutions to which acetic acid or formic acid was added were prepared for comparison with a reagent sugar solution containing no organic acid, and the fermentative microorganism cell of the same count was added to each sugar solution and cultured. At this time, the pHs of the reagent sugar solutions were adjusted to be the same. The absorbance of the microorganic counts was measured 24 hours later. Using the sugar solution to which acetic acid or formic acid was not added as the criterion, the degrees of growth inhibition are shown below.

[2] = tested on: fermentative microorganism cell (yeast); conditions: for growth inhibition of fermentative microorganism cell: acetic acid 1000 or 500 mg/L, or formic acid 400 mg/L, added to reagent sugar solution, after 24 hours, compared with no organic acid added
[3] = tested on: fermentative microorganism cell; conditions: acetic acid added to give 17.79 mM vs sugar solution without acetic acid
Procedure: A model experiment was subsequently carried out. After 72 hours from feeding a microorganism cell to a rice straw sugar solution at 50° C.

Row | Structure (SMILES) | inhibition at 5900 µM [1] [%] | inhibition at 11900 µM [1] [%] | inhibition at 17800 µM [1] [%] | growth of the fermentative microorganism cell ([2]; 3000 mg/L of acetic acid added to the reagent sugar solution) | growth inhibition of fermentative microorganism cell [2] | microorganic growth (absorbance) [3] | inhibition at 10000 µM [1] [%] | inhibition at 20000 µM [1] [%] | inhibition at 30000 µM [1] [%]
1 | CC(=O)O [Acetic acid, acetic acid] | 10.4 | 28.8 | 75.3 | no growth | growth inhibition of fermentative microorganism cell was observed | evidently poorer | – | – | –
2 | O=CO [Formic acid, formic acid] | – | – | – | – | growth inhibition of fermentative microorganism cell was observed | – | 5.6 | 61.1 | 71.4
